For this assay, the target named is T1, recombinant human MMP13 catalytic domain (CD) (Homo sapiens, UniProt P45452).
T1 construct: catalytic domain (CD) construct encompassing residues 20-274 (SWISS-PROT P45452); made in house
The experiment in a line: MMP-13 catalytic domain FRET enzyme assay. It is filed as biochemical. Conditions: recombinant human MMP-13 catalytic domain. As to the method: A recombinant human MMP13 catalytic domain (CD) construct encompassing residues 20-274 (SWISS-PROT P45452) was generated by synthetic gene methods and bacterial expression. MMP-13 activity assays were performed using the recombinant human MMP-13 CD at a 0.4 nM concentration and the fluorogenic substrate (QXL-520)-K-P-L-A˜Nva-Dap(5-FAM)-A-R-NH2 (Anaspec cat #60554-01, San Jose, Calif.) at a 0.25 μM concentration in assay buffer containing […], pH 7.5, 10 mM CaCl2, 150 mM NaCl, 0.05% Brij 35. The assay is based on the cleavage of this substrate by MMP-13, resulting in decrease of FRET between the donor-acceptor pair and subsequent fluorescence enhancement. The assays were carried out in 384-well plates (Greiner cat #781076, Germany) for 60 min at RT. After the incubation period, the reaction was quenched by the addition of 5 μL of 500 mM EDTA (100 mM final concentration) (Rankem, Cat #E0120, India) mixed well and the rate of substrate hydrolysis was determined by monitoring change in fluorescence at excitation and emission wavelengths of 485 nm and 535 nm respectively. Fluorescence was measured on a Victor V5 plate reader (Perkin Elmer, Turku, Finland). The test compounds used for assessing the potency of inhibition of MMP-13 activity were dissolved in DMSO (final DMSO concentration in the assay was 5%). Selected compounds were also screened against full length MMP13 (R&D Systems (Cat. No. 511-MM-010), Minneapolis, Minn.) at 2 nM concentration using the same fluorogenic substrate mentioned above. The enzyme was activated using 1 m Mp-aminophenylmercuric acetate—APMA (Cat #A-9563, Sigma, Germany).
Data analysis: The percent inhibition of the enzyme activity in presence of test compounds were calculated using the equation, percent (%) Inhibition=100−[(Fi/Fc)*100] where Fc is the fluorescence corresponding to initial enzyme activity and Fi is the fluorescence corresponding to the enzyme activity in presence of inhibitor. The IC50 values were calculated by fitting the dose-response data to a sigmoidal curve fitting equation using Graph Pad prism software (Version 5, La Jolla, Calif.).
MMP13 Catalytic Domain (CD) Potency of the Described Examples Determined Using Time Resolved Fluorescence Resonance Energy Transfer (FRET) Enzyme Assays: […]

By IC50 is commonly meant the concentration needed to halve the response being measured. Take `COc1cc(CNC(=O)c2cc(C3=NOC(c4cccnc4)C3)nc(C)n2)ccc1F` (centres unmarked): the IC50 was below 10 nM.

Regarding `COc1cc(CNC(=O)c2cc(C3=NOC(c4ccc(CO)cc4)C3)nc(C)n2)ccc1F` (centres unmarked), the IC50 was below 10 nM.

Take `COc1cc(CNC(=O)c2cc(C3=NOC(c4ccc(N5CCC(CO)CC5)cc4)C3)nc(C)n2)ccc1F` (centres unmarked): the IC50 lay in the range of 10 to 100 nM.

With `COc1cc(CNC(=O)c2cc(C3=NOC(c4ccc(CN5CCOCC5)cc4)C3)nc(C)n2)ccc1F` (centres unmarked), the IC50 lay in the range of 10 to 100 nM.

In the case of `COc1ccc(CNC(=O)c2cc(C3=NOC(c4nn[nH]n4)C3)nc(C)n2)cc1` (centres unmarked), the IC50 is above 1000 nM.

With `COc1cc(CNC(=O)c2cc(C3=NOC(c4ccc(CN5CCSCC5)cc4)C3)nc(C)n2)ccc1F` (centres unmarked), the IC50 was below 10 nM.

Regarding `CC(=O)N[C@H]1CC[C@H](C2CC(c3cc(C(=O)NCc4ccc(F)c(C)c4)nc(C)n3)=NO2)CC1` (some centres unmarked), the IC50 was below 10 nM.

Regarding `Cc1nc(C(=O)NCc2ccc(F)c(C)c2)cc(C2=NOC(c3ccc(C#N)nn3)C2)n1` (centres unmarked), the IC50 was below 10 nM.

For `CNCC(C)N[C@H]1CC[C@H](C2CC(c3cc(C(=O)NCc4ccc(F)c(OC)c4)nc(C)n3)=NO2)CC1` (some centres unmarked), the IC50 lay within 10 to 100 nM.

As to `Cc1nc(C(=O)NCc2ccc(F)c(C)c2)cc(C2=NO[C@H]([C@H]3CO[C@H](CS(C)(=O)=O)CO3)C2)n1`, the IC50 was below 10 nM.

In the case of `CC(=O)NC[C@@H]1CO[C@@H]([C@@H]2CC(c3cc(C(=O)NCc4ccc(F)c(C)c4)nc(C)n3)=NO2)CO1`, the IC50 was below 10 nM.

Take `CC(=O)NC[C@@H]1CO[C@@H]([C@@H]2CC(c3cc(C(=O)NCc4ccc(F)c(Cl)c4)nc(C)n3)=NO2)CO1`: the IC50 was below 10 nM.

In the case of `Cc1nc(C(=O)NCc2ccc(F)c(Cl)c2)cc(C2=NO[C@H]([C@H]3CO[C@H](CS(C)(=O)=O)CO3)C2)n1`, the IC50 was below 10 nM.

On to `Cc1cccc(CNC(=O)c2cc(C3=NO[C@H]([C@H]4CO[C@H](CO)CO4)C3)nc(C)n2)c1`, for which the IC50 was above 1000 nM.

`Cc1cccc(CNC(=O)c2cc(C3=NO[C@@H]([C@H]4CO[C@H](CO)CO4)C3)nc(C)n2)c1`: the IC50 is above 1000 nM.

As for `Cc1nc(C(=O)NCc2ccc(F)cc2)cc(C2=NOC(c3ccc(C#N)nn3)C2)n1` (centres unmarked), the IC50 is 10 to 100 nM.

For the compound `Cc1nc(C(=O)NCc2ccc(F)cc2)cc(C2=NOC(c3ccc(=O)n(C)c3)C2)n1` (centres unmarked), the IC50 lay in the range of 10 to 100 nM.

As to `COc1cc(CNC(=O)c2cc(C3=NOC(c4ccc(=O)n(CCO)c4)C3)nc(C)n2)ccc1F` (centres unmarked), the IC50 lay in the range of 10 to 100 nM.

Turning to `Cc1nc(C(=O)NCc2ccc(F)c(Cl)c2)cc(C2=NOC(c3ccc(=O)n(C)c3)C2)n1` (centres unmarked), the IC50 is below 10 nM.

`Cc1nc(C(=O)NCc2ccc(F)c(F)c2)cc(C2=NOC(c3ccc(=O)n(C)c3)C2)n1` (centres unmarked): the half-inhibitory concentration (IC50) lay in the range of 10 to 100 nM.

As for `Cc1nc(C(=O)NCc2ccc(F)c(F)c2)cc(C2=NOC(c3ccc(C#N)nn3)C2)n1` (centres unmarked), the IC50 was in the range of 10 to 100 nM.

Regarding `Cc1nc(C(=O)NCc2ccc(F)c(Cl)c2)cc(C2=NOC(c3ccc(C#N)nn3)C2)n1` (centres unmarked), the IC50 is 10 to 100 nM.

For `CC(=O)N[C@H]1CC[C@H](C2CC(c3cc(C(=O)NCc4ccc(F)c(Cl)c4)nc(C)n3)=NO2)CC1` (some centres unmarked), the IC50 was below 10 nM.

Turning to `CC(=O)N[C@H]1CC[C@H](C2CC(c3cc(C(=O)NCc4ccc(F)cc4)nc(C)n3)=NO2)CC1` (some centres unmarked), the IC50 lay within 10 to 100 nM.

Turning to `CC(=O)N[C@H]1CC[C@H](C2CC(c3cc(C(=O)NCc4ccc(F)c(F)c4)nc(C)n3)=NO2)CC1` (some centres unmarked), the IC50 was 10 to 100 nM.

Take `Cc1nc(C(=O)NCc2ccc3c(c2)CCO3)cc(C2=NO[C@H]([C@H]3CO[C@H](CO)CO3)C2)n1`: the IC50 lay within 10 to 100 nM.

Regarding `Cc1nc(C(=O)NCc2cccc(F)c2)cc(C2=NO[C@H]([C@H]3CO[C@H](CO)CO3)C2)n1`, the IC50 is above 1000 nM.

As for `Cc1nc(C(=O)NCc2cccc(F)c2)cc(C2=NO[C@@H]([C@H]3CO[C@H](CO)CO3)C2)n1`, the IC50 is above 1000 nM.

As for `Cc1nc(C(=O)NCc2ccc3oc(C)nc3c2)cc(C2=NO[C@H]([C@H]3CO[C@H](CO)CO3)C2)n1`, the IC50 was 10 to 100 nM.

In the case of `Cc1nc(C(=O)NCc2ccc3oc(C)nc3c2)cc(C2=NO[C@@H]([C@H]3CO[C@H](CO)CO3)C2)n1`, the IC50 is above 1000 nM.

`COC[C@@H]1CO[C@@H]([C@@H]2CC(c3cc(C(=O)NCc4ccc(F)c(OC)c4)nc(C)n3)=NO2)CO1`: the IC50 lay in the range of 10 to 100 nM.

Take `COC[C@@H]1CO[C@@H]([C@H]2CC(c3cc(C(=O)NCc4ccc(F)c(OC)c4)nc(C)n3)=NO2)CO1`: the IC50 was above 1000 nM.

Turning to `COc1cc(CNC(=O)c2cc(C3=NO[C@H]([C@H]4CO[C@H](CNC(=O)[C@H](C)O)CO4)C3)nc(C)n2)ccc1F`, the IC50 is below 10 nM.

`Cc1nc(C(=O)NCc2ccc(F)c(C)c2)cc(C2=NOC([C@H]3CC[C@H](NC(=O)[C@H](C)O)CC3)C2)n1` (some centres unmarked): the IC50 is below 10 nM.

Turning to `Cc1nc(C(=O)NCc2ccc3c(c2)OCCO3)cc(C2=NO[C@H]([C@H]3CO[C@H](CO)CO3)C2)n1`, the IC50 is 10 to 100 nM.

As to `Cc1nc(C(=O)NCc2ccc3c(c2)OCCO3)cc(C2=NO[C@@H]([C@H]3CO[C@H](CO)CO3)C2)n1`, the IC50 was above 1000 nM.

In the case of `Cc1nc(C(=O)NCc2ccc(F)cc2)cc(C2=NOC([C@H]3CC[C@H](NC(=O)[C@H](C)O)CC3)C2)n1` (some centres unmarked), the half-maximal inhibitory concentration (IC50) lay within 10 to 100 nM.

For `Cc1nc(C(=O)NCc2ccc3c(c2)NC(=O)CO3)cc(C2=NO[C@H]([C@H]3CO[C@H](CO)CO3)C2)n1`, the IC50 was below 10 nM.

For `Cc1nc(C(=O)NCc2ccc3c(c2)NC(=O)CO3)cc(C2=NO[C@@H]([C@H]3CO[C@H](CO)CO3)C2)n1`, the IC50 is 10 to 100 nM.

Take `COc1cc(CNC(=O)c2cc(C3=NOC(c4ccn(C)c(=O)c4)C3)nc(C)n2)ccc1F` (centres unmarked): the IC50 is 10 to 100 nM.

As to `COc1cc(CNC(=O)c2cc(C3=NOC(c4ccc(=O)n(C5CC5)c4)C3)nc(C)n2)ccc1F` (centres unmarked), the IC50 is below 10 nM.

With `COc1cc(CNC(=O)c2cc(C3=NOC(c4ccc(=O)n(C)n4)C3)nc(C)n2)ccc1F` (centres unmarked), the IC50 is 10 to 100 nM.

Consider `COc1ccc(CNC(=O)c2cc(C3CC(c4ccc(OCCO)cc4)=NO3)nc(C)n2)cc1` (centres unmarked), for which the IC50 was 10 to 100 nM.

Turning to `COc1cc(CNC(=O)c2cc(C3CC(c4ccccc4)=NO3)nc(C)n2)ccc1F` (centres unmarked), the IC50 lay within 10 to 100 nM.

Regarding `COc1cc(CNC(=O)c2cc(C3CC(c4ccc(OCCO)cc4)=NO3)nc(C)n2)ccc1F` (centres unmarked), the IC50 lay within 10 to 100 nM.

In the case of `COc1ccc(CNC(=O)c2cc(C3CC(c4ccccc4)=NO3)nc(C)n2)cc1` (centres unmarked), the IC50 fell in the range of 100 to 1000 nM.

For `COc1cc(CNC(=O)c2cc(C3=NO[C@H](C4CCN(C(=O)CO)CC4)C3)nc(C)n2)ccc1F`, the IC50 was below 10 nM.

On to `COc1cc(CNC(=O)c2cc(C3=NO[C@@H](C4CCN(C(=O)CO)CC4)C3)nc(C)n2)ccc1F`, for which the IC50 is 10 to 100 nM.

`COc1ccc(CNC(=O)c2cc(C3=NO[C@H](c4ccc(OCCO)cc4)C3)nc(C)n2)cc1`: the IC50 was below 10 nM.

Regarding `COc1ccc(CNC(=O)c2cc(C3=NO[C@@H](c4ccc(OCCO)cc4)C3)nc(C)n2)cc1`, the IC50 was 10 to 100 nM.

With `COc1cc(CNC(=O)c2cc(C3=NO[C@H](c4ccc(CO)cc4)C3)nc(C)n2)ccc1F`, the IC50 is above 1000 nM.

In the case of `COc1cc(CNC(=O)c2cc(C3=NO[C@@H](c4ccc(CO)cc4)C3)nc(C)n2)ccc1F`, the IC50 was below 10 nM.

As for `CC(=O)N[C@H]1CC[C@H]([C@@H]2CC(c3cc(C(=O)NCc4ccc(F)c(C)c4)nc(C)n3)=NO2)CC1`, the IC50 is below 10 nM.

With `CC(=O)N[C@H]1CC[C@H]([C@H]2CC(c3cc(C(=O)NCc4ccc(F)c(C)c4)nc(C)n3)=NO2)CC1`, the IC50 is 10 to 100 nM.

As to `COc1cc(CNC(=O)c2cc(C3=NO[C@H]([C@H]4CC[C@H](NC(=O)[C@H](C)O)CC4)C3)nc(C)n2)ccc1F`, the IC50 was below 10 nM.

In the case of `COc1cc(CNC(=O)c2cc(C3=NO[C@@H]([C@H]4CC[C@H](NC(=O)[C@H](C)O)CC4)C3)nc(C)n2)ccc1F`, the IC50 was in the range of 10 to 100 nM.

Turning to `Cc1nc(C(=O)NCc2ccc(F)c(C)c2)cc(C2=NO[C@H]([C@H]3CC[C@H](NC(=O)[C@H](C)O)CC3)C2)n1`, the IC50 was below 10 nM.

Consider `Cc1nc(C(=O)NCc2ccc(F)c(C)c2)cc(C2=NO[C@@H]([C@H]3CC[C@H](NC(=O)[C@H](C)O)CC3)C2)n1`, for which the IC50 was 10 to 100 nM.

Regarding `Cc1nc(C(=O)NCc2ccc(F)c(Cl)c2)cc(C2=NO[C@H]([C@H]3CC[C@H](NC(=O)[C@H](C)O)CC3)C2)n1`, the IC50 is below 10 nM.

The values above are taken from patent publication US9029409B2, “Isoxazolines as therapeutic agents” (AbbVie Inc., priority 2011, dated 2015).
